Data: PubChem BioAssay AID248 (DTP/NCI, 2004)
Several values for one entry are separate records, joined by “and”; a condition that tells them apart may be missing. Equal entries are not always repeated. Inconclusive results and toxic doses are left out. Square brackets hold non-standard residues; d marks the D form. Peptide text beside a SMILES is read from it. * marks the point of attachment. ξ: configuration not given here. Cbz = O=C(OCc1ccccc1)*; ξNva = CCCC(N)C(=O)O

System: L1210 leukemia ip in BDF1 mice, survival T/C
Experiment: NCI In Vivo Anticancer Drug Screen. Data for tumor model L1210 Leukemia (intraperitoneal) in B6D2F1 (BDF1) mice
Settings: endpoint: mean survival time, higher = longer survival
Procedure, shortened: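 Value reflects the ratio of survival in compound-treated mice to survival in vehicle-treated controls, with both groups carrying the same transplanted tumor.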

[1] = dose: 50.0 mg/kg/injection, schedule: Q01DX001 (ip), vehicle: saline
[2] = dose: 50.0 mg/kg/injection, schedule: Q04DX003 (ip), vehicle: Klucel (hydroxypropylcellulose) (HPC)
[3] = dose: 100.0 mg/kg/injection, schedule: Q01DX001 (ip), vehicle: saline
[4] = dose: 100.0 mg/kg/injection, schedule: Q01DX009 (ip), vehicle: Klucel (hydroxypropylcellulose) (HPC)
[5] = dose: 100.0 mg/kg/injection, schedule: Q01DX009 (ip), vehicle: saline
[6] = dose: 100.0 mg/kg/injection, schedule: Q04DX003 (ip), vehicle: Klucel (hydroxypropylcellulose) (HPC)
[7] = dose: 200.0 mg/kg/injection, schedule: Q01DX001 (ip), vehicle: saline
[8] = dose: 200.0 mg/kg/injection, schedule: Q01DX009 (ip), vehicle: Klucel (hydroxypropylcellulose) (HPC)
[9] = dose: 200.0 mg/kg/injection, schedule: Q01DX009 (ip), vehicle: saline
[10] = dose: 200.0 mg/kg/injection, schedule: Q04DX003 (ip), vehicle: Klucel (hydroxypropylcellulose) (HPC)
[11] = dose: 400.0 mg/kg/injection, schedule: Q01DX001 (ip), vehicle: saline
[12] = dose: 400.0 mg/kg/injection, schedule: Q01DX009 (ip), vehicle: Klucel (hydroxypropylcellulose) (HPC)
[13] = dose: 400.0 mg/kg/injection, schedule: Q04DX003 (ip), vehicle: Klucel (hydroxypropylcellulose) (HPC)
[14] = dose: 100.0 mg/kg/injection, schedule: Q01DX001 (ip), vehicle: saline with Tween-80
[15] = dose: 100.0 mg/kg/injection, schedule: Q01DX009 (ip), vehicle: saline with Tween-80
[16] = dose: 100.0 mg/kg/injection, schedule: Q04DX002 (ip), vehicle: saline with Tween-80
[17] = dose: 100.0 mg/kg/injection, schedule: Q04DX003 (ip), vehicle: saline with Tween-80
[18] = dose: 200.0 mg/kg/injection, schedule: Q01DX009 (ip), vehicle: saline with Tween-80
[19] = dose: 200.0 mg/kg/injection, schedule: Q04DX002 (ip), vehicle: saline with Tween-80
[20] = dose: 200.0 mg/kg/injection, schedule: Q04DX003 (ip), vehicle: saline with Tween-80
[21] = dose: 400.0 mg/kg/injection, schedule: Q01DX009 (ip), vehicle: saline with Tween-80
[22] = dose: 400.0 mg/kg/injection, schedule: Q04DX002 (ip), vehicle: saline with Tween-80
[23] = dose: 400.0 mg/kg/injection, schedule: Q04DX003 (ip), vehicle: saline with Tween-80
[24] = dose: 100.0 mg/kg/injection, schedule: Q04DX003 (ip), vehicle: saline
[25] = dose: 200.0 mg/kg/injection, schedule: Q04DX003 (ip), vehicle: saline
[26] = dose: 400.0 mg/kg/injection, schedule: Q04DX003 (ip), vehicle: saline

## O=C1CCC(N2C(=O)c3ccccc3C2=O)C(=O)N1 (stereo not given)
dose: 25.0 mg/kg/injection, schedule: Q01DX009 (ip), vehicle: Klucel (hydroxypropylcellulose) (HPC)
  T/C: 112 % of control
dose: 25.0 mg/kg/injection, schedule: Q04DX003 (ip), vehicle: Klucel (hydroxypropylcellulose) (HPC)
  T/C: 109 % of control
dose: 31.3 mg/kg/injection, schedule: Q01DX Z (ip), vehicle: saline
  T/C: 102 % of control
[1]
  T/C: 105 % of control
dose: 50.0 mg/kg/injection, schedule: Q01DX009 (ip), vehicle: Klucel (hydroxypropylcellulose) (HPC)
  T/C: 111 % of control
[2]
  T/C: 95 % of control
dose: 62.5 mg/kg/injection, schedule: Q01DX Z (ip), vehicle: saline
  T/C: 94 % of control
[3]
  T/C: 105 % of control
[4]
  T/C: 103 % of control
[5]
  T/C: 96 % of control
[6]
  T/C: 98 % of control
dose: 125.0 mg/kg/injection, schedule: Q01DX Z (ip), vehicle: saline
  T/C: 104 % of control
[7]
  T/C: 111 % of control
[8]
  T/C: 100 % of control
[9]
  T/C: 102 % of control
[10]
  T/C: 98 % of control
dose: 250.0 mg/kg/injection, schedule: Q01DX Z (ip), vehicle: saline
  T/C: 102 % of control
[11]
  T/C: 109 % of control
[12]
  T/C: 101 % of control
dose: 400.0 mg/kg/injection, schedule: Q01DX009 (ip), vehicle: saline
  T/C: 98 % of control
[13]
  T/C: 106 % of control
dose: 800.0 mg/kg/injection, schedule: Q01DX009 (ip), vehicle: saline
  T/C: 95 % of control

## CCCCCCCSc1nsc(SCCCCCCC)c1C#N
[4]
  T/C: 104 % of control
[8]
  T/C: 114 % of control
[12]
  T/C: 101 % of control

## O=c1[nH]c2cc3[nH]c(=O)c(=O)c3cc2c1=O
[4]
  T/C: 102 % of control
[8]
  T/C: 100 % of control
[12]
  T/C: 100 % of control

## COc1[nH]c(=O)ncc1Br
[1]
  T/C: 105 % of control
[3]
  T/C: 103 % of control
[7]
  T/C: 109 % of control
[11]
  T/C: 103 % of control

## Cc1ccc(Cl)cc1NC(=O)OCCOc1ccccc1
dose: 50.0 mg/kg/injection, schedule: Q04DX003 (ip), vehicle: saline with Tween-80
  T/C: 104 % of control
[14]
  T/C: 93 % of control
[15]
  T/C: 95 % of control
[16]
  T/C: 112 % of control and 89 % of control
[17]
  T/C: 96 % of control and 91 % of control
dose: 200.0 mg/kg/injection, schedule: Q01DX001 (ip), vehicle: saline with Tween-80
  T/C: 91 % of control
[18]
  T/C: 103 % of control and 90 % of control
[19]
  T/C: 94 % of control
[20]
  T/C: 102 % of control
dose: 400.0 mg/kg/injection, schedule: Q01DX001 (ip), vehicle: saline with Tween-80
  T/C: 98 % of control
[21]
  T/C: 95 % of control and 103 % of control
[22]
  T/C: 94 % of control and 95 % of control
[23]
  T/C: 88 % of control and 92 % of control

## O=C(Cl)c1ccc(OC(Cl)(Cl)Cl)cc1
[6]
  T/C: 109 % of control
[8]
  T/C: 100 % of control
[10]
  T/C: 92 % of control
[12]
  T/C: 95 % of control
[13]
  T/C: 94 % of control

## O=C(COc1ccc(Cl)c(Cl)c1)Nc1ccc[n+](CC(=O)c2cccc(S(=O)(=O)F)c2)c1
dose: 25.0 mg/kg/injection, schedule: Q01DX001 (ip), vehicle: saline with Tween-80
  T/C: 96 % of control
dose: 50.0 mg/kg/injection, schedule: Q01DX001 (ip), vehicle: saline with Tween-80
  T/C: 98 % of control
[14]
  T/C: 107 % of control

## c1cnc(OCCN2CC2)cn1
dose: 25.0 mg/kg/injection, schedule: Q01DX001 (ip), vehicle: saline
  T/C: 115 % of control
[1]
  T/C: 96 % of control

## O=[N+]([O-])c1ccc(C2=Cc3cccn3-c3ccccc3S2(=O)=O)cc1
[6]
  T/C: 96 % of control
[10]
  T/C: 95 % of control
[13]
  T/C: 98 % of control

## C/C(=C(/CCO)SCCC(=O)c1ccccc1)N(C=O)Cc1cnc(C)nc1N
[24]
  T/C: 101 % of control
[25]
  T/C: 93 % of control
[26]
  T/C: 93 % of control

## CC1(C(=O)N2c3ccccc3C=CC2C#N)CC2C=CC1C2 (stereo not given)
[6]
  T/C: 106 % of control
[10]
  T/C: 110 % of control
[13]
  T/C: 123 % of control

## O=C(Nc1ccccc1C(F)(F)F)c1ccc(C(=O)Nc2ccccc2C(F)(F)F)cc1
[15]
  T/C: 90 % of control
[17]
  T/C: 90 % of control
[18]
  T/C: 87 % of control
[20]
  T/C: 90 % of control
[21]
  T/C: 100 % of control
[23]
  T/C: 91 % of control

## CCN(CC)C(=O)Nc1ccc([N+](=O)[O-])cc1
dose: 100.0 mg/kg/injection, schedule: Q01DX001 (ip), vehicle: carboxymethylcellulose (CMC)
  T/C: 97 % of control
[6]
  T/C: 109 % of control
dose: 200.0 mg/kg/injection, schedule: Q01DX001 (ip), vehicle: carboxymethylcellulose (CMC)
  T/C: 101 % of control
[10]
  T/C: 96 % of control
dose: 400.0 mg/kg/injection, schedule: Q01DX001 (ip), vehicle: carboxymethylcellulose (CMC)
  T/C: 97 % of control
[13]
  T/C: 107 % of control

## CN(C)C(=S)N=Nc1ccccc1
dose: 50.0 mg/kg/injection, schedule: Q01DX009 (ip), vehicle: saline with Tween-80
  T/C: 92 % of control
dose: 50.0 mg/kg/injection, schedule: Q01DX009 (ip), vehicle: saline
  T/C: 97 % of control
[15]
  T/C: 100 % of control
[5]
  T/C: 100 % of control
[18]
  T/C: 100 % of control
[9]
  T/C: 107 % of control

## CC(C)CC(C)N (stereo not given)
[2]
  T/C: 93 % of control
[6]
  T/C: 100 % of control
[10]
  T/C: 96 % of control

## CCN(CC)C(N)=Nc1ccc(NC(=O)c2ccc(C(=O)Nc3ccc(N=C(N)N(CC)CC)cc3)cc2)cc1
dose: 1.8 mg/kg/injection, schedule: Q01DX Z (ip), vehicle: water
  T/C: 113 % of control
dose: 6.5 mg/kg/injection, schedule: Q01DX Z (ip), vehicle: water
  T/C: 180 % of control
dose: 50.0 mg/kg/injection, schedule: Q01DX Z (oral), vehicle: water
  T/C: 101 % of control
dose: 200.0 mg/kg/injection, schedule: Q01DX Z (oral), vehicle: water
  T/C: 107 % of control
dose: 400.0 mg/kg/injection, schedule: Q01DX Z (oral), vehicle: water
  T/C: 93 % of control

## CC/C(N)=C\C(=O)c1ccccc1
dose: 100.0 mg/kg/injection, schedule: Q04DX002 (ip), vehicle: Klucel (hydroxypropylcellulose) (HPC)
  T/C: 102 % of control
dose: 200.0 mg/kg/injection, schedule: Q04DX002 (ip), vehicle: Klucel (hydroxypropylcellulose) (HPC)
  T/C: 105 % of control
dose: 400.0 mg/kg/injection, schedule: Q04DX002 (ip), vehicle: Klucel (hydroxypropylcellulose) (HPC)
  T/C: 98 % of control

## CCN(CC)N=Nc1ccc(S(=O)(=O)N(C)C)cc1
[16]
  T/C: 104 % of control
[19]
  T/C: 97 % of control
[22]
  T/C: 115 % of control

## ClCc1ccncc1
[5]
  T/C: 87 % of control
[24]
  T/C: 109 % of control
[9]
  T/C: 95 % of control
[25]
  T/C: 98 % of control
[26]
  T/C: 98 % of control

## CCCCCCCCCCCCCCCC(=O)N(c1ccc(NC(=O)Nc2ccc(N(C(=O)CCCCCCCCCCCCCCC)C(C)CCCN(CC)CC)cc2)cc1)C(C)CCCN(CC)CC (stereo not given)
[15]
  T/C: 90 % of control
[18]
  T/C: 92 % of control
[21]
  T/C: 97 % of control

## O=C1OC(c2ccccc2)(c2ccccc2)c2ccccc21
[4]
  T/C: 93 % of control
[6]
  T/C: 107 % of control
[8]
  T/C: 101 % of control
[10]
  T/C: 102 % of control
[12]
  T/C: 88 % of control
[13]
  T/C: 100 % of control

## CCCC(NC(=O)CNC(=O)CNC(=O)OCc1ccccc1)C(=O)O (stereo not drawn) (Cbz-Gly-Gly-[ξNva]-OH)
[6]
  T/C: 101 % of control
[10]
  T/C: 106 % of control
[13]
  T/C: 106 % of control

## O=C(CC(O)(C(F)(F)F)C(F)(F)F)c1ccc(Cl)c([N+](=O)[O-])c1
dose: 75.0 mg/kg/injection, schedule: Q01DX009 (ip), vehicle: Klucel (hydroxypropylcellulose) (HPC)
  T/C: 102 % of control
dose: 150.0 mg/kg/injection, schedule: Q01DX009 (ip), vehicle: Klucel (hydroxypropylcellulose) (HPC)
  T/C: 100 % of control
